Experiments:
hDMCs = test: Cytotoxicity assay of BTT 3033 (cell viability assay, WST); type: cell-based, human; details: for Viability (A.U.): 37° C., 90 min
Experimental: To evaluate cell viability, EZ-Cytox cell viability assay kit (Daeillab Service Ltd., Seoul, Republic of Korea) was used according to the manufacturer's instructions. Water-soluble tetrazolium salt (WST) reagent was added to each well. After 1 hour of incubation, the absorbance of the supernatant was measured at the wavelength of 450 nm on a microplate absorbance reader. The viability was assessed by normalized absorbance values.
For cytotoxicity assay of BTT 3033, hDMCs were treated with BTT 3033 in a dose dependent manner and incubated at 37° C. for 90 min. After incubation, cell viability assay was performed.

co-cultured hDMCs = test: Adhesion assay of co-cultured hDMCs to ECM components after integrin α2β1 inhibitor treatment; type: cell-based, human; details: 130 nM, 37° C., 30 min
Experimental: Adhesion assays identifying ECM components adhering to hDMC were performed using CytoSelect 48-well cell adhesion assay kits (Cell Biolabs Inc., San Diego, Calif.).
After detachment of naïve hDMCs and MΦ-co-cultured hDMCs, cell suspensions were prepared in serum-free DMEM. A total of 1.5×10^3 cells in 150 μl serum-free medium were added to each well and incubated for 1 hour at 37° C. After removal of the medium, the cells were washed four times with 150 μl PBS.
Cell staining and protein extraction were performed according to the manufacturer's instructions. Cellular adhesion was assessed by measuring the optical density at 560 nm on a Gemini XPS Microplate Reader (Molecular Devices, Sunnyvale, Calif.).
For an adhesion assay for the functional validation of integrin α2β1, the co-cultured hDMCs were incubated with 130 nM BTT 3033 at 37° C. for 30 min. After incubation, an adhesion assay was performed as described above.

integrin α2β1 = integrin α2β1 (Homo sapiens, UniProt P17301); details: according to manufacturer's instructions; read-out: half maximal effective concentration (EC50); cited from earlier work
integrin α2β1, sequence (P17301 30-1181): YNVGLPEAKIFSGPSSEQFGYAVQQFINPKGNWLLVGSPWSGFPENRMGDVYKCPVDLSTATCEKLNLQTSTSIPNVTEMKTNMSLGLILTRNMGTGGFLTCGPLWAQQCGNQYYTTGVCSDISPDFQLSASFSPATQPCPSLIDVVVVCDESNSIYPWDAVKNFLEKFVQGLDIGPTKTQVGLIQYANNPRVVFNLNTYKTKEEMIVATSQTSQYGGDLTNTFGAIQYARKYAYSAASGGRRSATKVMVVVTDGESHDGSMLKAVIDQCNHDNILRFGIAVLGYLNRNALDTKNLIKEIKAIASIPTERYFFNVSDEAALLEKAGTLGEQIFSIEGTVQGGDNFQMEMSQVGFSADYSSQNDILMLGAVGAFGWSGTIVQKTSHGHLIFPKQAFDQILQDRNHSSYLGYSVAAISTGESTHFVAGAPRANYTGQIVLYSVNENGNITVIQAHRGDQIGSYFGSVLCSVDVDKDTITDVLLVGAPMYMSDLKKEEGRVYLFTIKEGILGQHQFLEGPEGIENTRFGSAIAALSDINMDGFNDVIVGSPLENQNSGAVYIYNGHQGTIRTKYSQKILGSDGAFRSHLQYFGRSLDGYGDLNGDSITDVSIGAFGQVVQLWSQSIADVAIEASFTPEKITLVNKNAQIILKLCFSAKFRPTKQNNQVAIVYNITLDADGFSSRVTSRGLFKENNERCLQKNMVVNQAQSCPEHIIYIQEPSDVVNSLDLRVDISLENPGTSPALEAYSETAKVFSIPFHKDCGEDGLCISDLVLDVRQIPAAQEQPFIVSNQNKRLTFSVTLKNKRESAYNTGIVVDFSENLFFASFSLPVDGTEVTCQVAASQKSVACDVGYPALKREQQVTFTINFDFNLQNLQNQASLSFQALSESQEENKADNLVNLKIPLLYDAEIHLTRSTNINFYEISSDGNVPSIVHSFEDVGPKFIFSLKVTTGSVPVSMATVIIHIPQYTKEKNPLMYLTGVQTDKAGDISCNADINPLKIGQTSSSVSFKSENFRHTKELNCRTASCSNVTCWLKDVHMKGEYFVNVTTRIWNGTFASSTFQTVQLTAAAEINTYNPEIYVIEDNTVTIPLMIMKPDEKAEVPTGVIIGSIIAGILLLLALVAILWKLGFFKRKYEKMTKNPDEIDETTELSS
integrin α2β1, sequence (P05556 21-798 partner): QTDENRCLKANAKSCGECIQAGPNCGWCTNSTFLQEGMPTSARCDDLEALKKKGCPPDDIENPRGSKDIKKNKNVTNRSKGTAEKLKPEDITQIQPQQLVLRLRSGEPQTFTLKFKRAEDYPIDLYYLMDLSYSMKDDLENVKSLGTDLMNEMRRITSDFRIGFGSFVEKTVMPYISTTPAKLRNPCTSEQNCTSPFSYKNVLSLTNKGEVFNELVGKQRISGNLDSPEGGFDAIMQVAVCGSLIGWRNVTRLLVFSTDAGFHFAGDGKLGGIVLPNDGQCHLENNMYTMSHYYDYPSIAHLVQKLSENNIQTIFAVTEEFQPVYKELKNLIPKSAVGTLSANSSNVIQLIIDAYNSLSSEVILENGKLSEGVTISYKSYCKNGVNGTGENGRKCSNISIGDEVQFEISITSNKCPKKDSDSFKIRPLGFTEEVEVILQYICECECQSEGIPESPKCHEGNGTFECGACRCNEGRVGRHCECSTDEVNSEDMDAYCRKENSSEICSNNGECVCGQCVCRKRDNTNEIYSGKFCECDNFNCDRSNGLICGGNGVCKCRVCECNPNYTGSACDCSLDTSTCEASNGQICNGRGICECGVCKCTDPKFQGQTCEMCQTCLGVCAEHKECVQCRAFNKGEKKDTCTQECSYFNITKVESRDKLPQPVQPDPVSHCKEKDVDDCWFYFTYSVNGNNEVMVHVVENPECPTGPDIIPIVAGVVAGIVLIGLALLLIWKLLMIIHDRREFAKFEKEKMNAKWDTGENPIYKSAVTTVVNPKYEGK

CN(c1ccc(NC(=O)Nc2ccccc2)cc1)S(=O)(=O)c1cnn(-c2ccc(F)cc2)c1 [BTT 3033, 1-(4-Fluorophenyl)-N-methyl-N-[4[[(phenylamino)carbonyl]amino]phenyl]-1H-pyrazole-4-sulfonamide]
Viability (A.U.) (hDMCs; BTT 3033 16.25 nM): 0.896 ± 0.090 A.U. | Viability (A.U.) (hDMCs; BTT 3033 32.50 nM): 0.844 ± 0.099 A.U. | Viability (A.U.) (hDMCs; BTT 3033 65.00 nM): 0.899 ± 0.075 A.U. | Viability (A.U.) (hDMCs; BTT 3033 130.00 nM): 0.800 ± 0.054 A.U. | Viability (A.U.) (hDMCs; BTT 3033 260.00 nM): 0.854 ± 0.081 A.U. | Viability (A.U.) (hDMCs; BTT 3033 520.00 nM): 0.827 ± 0.069 A.U. | cytotoxicity (hDMCs; concentration from 16.25 to 520.00 nM): less than 20.0% | adhesion of co-cultured hDMCs to collagen I (co-cultured hDMCs; un-treated 0.43±0.03): 0.27±0.04 | adhesion of co-cultured hDMCs to collagen IV (co-cultured hDMCs; un-treated 0.44±0.08): 0.28±0.08 | reduction of adhesion of co-cultured hDMCs to collagen I (co-cultured hDMCs; vs un-treated, p<0.001): 37.8% | reduction of adhesion of co-cultured hDMCs to collagen IV (co-cultured hDMCs; vs un-treated, p=0.057): 35.7% | EC50 (integrin α2β1): 130 nM

From patent US20210070866A1, “Pharmaceutical Composition For Preventing Or Treating Tissue Adhesion Comprising Integrin a2ß1 Inhibitors” (KOREA UNIVERSITY RESEARCH AND BUSINESS FOUNDATION, priority 2019, published 2021)
